“Also recorded” adds a separate entry of the source. Like-named read-outs stand apart in the source and are kept apart here.
Key:
[1] = system: antibody affinity site; experiment: Protection experiments with nucleotides and nucleosides against [γ^32 P]8-N3 ATP photolabeling; assay type: binding; details: data not shown
Protocol: (§1) Antibodies (3 μg) were incubated with 200 μM [γ^32 P]8-N3 ATP (5-30 mCi/μmole) in a final volume of 30 μL for 1 minute and photolyzed with a hand-held UV lamp at 254 nm for 1 min. The reactions were quenched with protein solubilizing mixture (10% SDS, 3.6M urea, 162 mM DTT, Pyronin Y and 20 mM Tris, pH 8.0) and analyzed by 6-14% gradient SDS-PAGE. The gels were stained with Coomassie Brilliant Blue, destained, and dried using a slab gel drier. ^32 P incorporation was detected by autoradiography and quantified by either scanning on an optical Image and Acquisition Analysis (Ambis, Inc.) or by cutting the appropriate band from the gel counting the radioactivity by liquid scintillation counting.
(§2) Antibody S1C5 (Maloney et al, Hybridoma, 4:191-209 (1985)), and 8019 (Koprowsky et al, Somat. Cell. Genet., 5:957-961 (1979)) each (3 μg) were incubated with increasing concentrations of [γ^32 P]8-N3 ATP for 1 min at 4° C. and photolyzed and analyzed as described above. Protection of photolabeling of S1C5 and 8019 was performed by incubating […] of antibodies with increasing concentrations of ATP for 2 min followed by incubation with 200 μM [γ^32 P]8-N3 ATP for 1 min and photolyzed and analyzed as described above. […]

[2] = system: SIC5 antibody; experiment: Inhibition by ATP of [γ^32 P]-8-N3 ATP photoincorporation into SIC5 (S1C5) antibody; assay type: binding, murine
Protocol: The SIC5 antibody was again labeled, but in this example labeling was performed in the presence of increasing amounts of free ATP. Specifically,3 μg of the SIC5 antibody was photolyzed in the presence of 200 μm [γ^32 P]-8-N3 ATP using concentrations of ATP ranging from 0 to 700 μm. The labeled protein was again separated by SDS-PAGE; and radioactivity determined by liquid scintillation counting.
as §1
(§3) Antibody S1C5 (Maloney et al, Hybridoma, 4:191-209 (1985)), and 8019 (Koprowsky et al, Somat. Cell. Genet., 5:957-961 (1979)) each (3 μg) were incubated with increasing concentrations of [γ^32 P]8-N3 ATP for 1 min at 4° C. and photolyzed and analyzed as described above. Protection of photolabeling of S1C5 and 8019 was performed by incubating […] of antibodies with increasing concentrations of ATP for 2 min followed by incubation with 200 μM [γ^32 P]8-N3 ATP for 1 min and photolyzed and analyzed as described above. Protection experiments using amino acids were performed by incubating 3 μg of S1C5 antibody with increasing concentrations of amino acids for 2 min, followed by incubation with 200 μM [γ^32 P]8-N3 ATP for 1 min. Photolysis and analysis were performed as described.

[3] = system: 8019 antibody; experiment: Inhibition by ATP of [γ^32 P]8-N3 ATP photolabeling of 8019 antibody; assay type: binding; details: 8019, 200 μM [γ^32 P]8-N3 ATP, in words
Protocol: as §1, §2

[4] = system: S1C5 antibody; experiment: Quantitative immuno-precipitation of [γ^32 P]8-N3 ATP labeled S1C5 (stoichiometry); assay type: binding, murine; details: triplicate experiments
Excerpt: Amino acid sequence of S1C5 and 8019 were deduced from the cloned and sequenced V genes (FIG. 12c). The identified peptides from photoaffinity labeling corresponded to sequences located in the variable Ig domain. The peptides eluted first (T1) from each antibody are derived from the CDR1 domain of the variable light chain extending into FR2. The second eluted peptides (T2) are from the CDR3-FR4 region of the variable heavy chain domain. It is striking that both peptides included invariant aromatic residues, Trp H103 in the VH domain and the highly conserved Tyr L36 within the VL domain.

[5] = system: SIC5 antibody; experiment: Photolabeling saturation of SIC5 (S1C5) antibody with [γ^32 P]-8-N3 ATP; assay type: binding, murine
Protocol: In particular, 3 μg of SIC5 antibody in […] of photolysis buffer was photolyzed with increasing concentrations of [γ^32 P]-8-N3 ATP and then separated by SDS-PAGE. ^32 P incorporation was detected by autoradiography and quantified by scanning on Optical Imaging Acquisition Analysis (Ambis, Inc.). Photoincorporation was quantitatively confirmed by cutting the appropriate band and determining radioactivity by liquid scintillation counting. […] It can further be seen that there is a defined saturating concentration of probe at about 200 μm for both chains. This saturation plateau provides strong evidence that there exists a unique and limited number of affinity sites of the antibody which are bound by the [γ^32 P]-8-N3 ATP compound.
as §1, §3

[6] = system: 8019 antibody; experiment: Photolabeling saturation of 8019 antibody with [γ^32 P]8-N3 ATP; assay type: binding; details: 8019, Example 10
Protocol: as §1, §2

[7] = system: S1C5 antibody; experiment: Protection of S1C5 photolabeling by amino acids; assay type: binding, murine; details: 200 μM [γ^32 P]8-N3 ATP
Protocol: as §1, §2

[8] = system: CEA antigen, LS174T tumor cells; experiment: Competition of γ^32 P-labeled 8019 binding to its cellular target by unlabeled antibody; assay type: cell-based; details: data not shown
Protocol: (§4) To determine whether the modification of this site affects antigen recognition the binding of photolabeled S1C5 (IgG2a, κ) and 8019 (IgG1, κ) to their respective antigens was tested, S1C5 is specific for a murine B-cell tumor idiotype 38C13 (13) and 8019 recognizes the CEA antigen (Koprowsky et al, Somat. Cell. Genet., 5:957-961 (1979)), expressed by the LS17T4 tumor cell line. […] Also, these same antibodies were photomodified with biotinylated 8-N3 adenosine and used in FACS. […] A comparison of the photoaffinity biotinylated antibodies with conventionally biotinylated antibodies in FACS produced nearly identical staining (manuscript submitted).

[9] = system: LS174T tumor cells; experiment: FACS of biotinylated 8-azidoadenosine labeled 8019; assay type: cell-based; details: biotinylated 8-N3 adenosine modified antibody
Protocol: (§5) Tumor cells (38C13 and LS174T, 1×10^6) were incubated with biotinylated 8-azidoadenosine labeled antibody S1C5 or 8019 (manuscript submitted) for 60 min. on ice. After washing with 5% FCS/PBS, Neutralite Avidin-FITC (Southern Biotechnology Associates, Inc.) was added and incubated for 30 min., fixed and subjected to flow cytometry. FACS data were generated front a minimum of 9900 cells per sample.
as §4

[10] = system: murine B-cell tumor idiotype 38C13; experiment: Competition of γ^32 P-labeled S1C5 binding to its cellular target by unlabeled antibody; assay type: cell-based; details: 38C13, data not shown
Protocol: as §4

[11] = system: 38C13 tumor cells; experiment: FACS of biotinylated 8-azidoadenosine labeled S1C5; assay type: cell-based, murine; details: biotinylated 8-N3 adenosine modified antibody
Protocol: as §5, §4

`[N-]=[N+]=Nc1nc2c(N)ncnc2n1[C@@H]1O[C@H](CO)[C@@H](O)[C@H]1O` [8-azidoadenosine] was tested, and the “binding relative to 8-N3 ATP” value [1] was “tighter binding than 8-N3 ATP”.

`Nc1ncnc2c1ncn2[C@@H]1O[C@H](COP(=O)(O)OP(=O)(O)OP(=O)(O)O)[C@@H](O)[C@H]1O` [ATP] was tested, and the IC50 ([2]; 200 μm [γ^32 P]-8-N3 ATP, ATP 0 to 700 μm, Example 2, read-out: ATP concentration for 50% inhibition of labeling) was ~350 µM, the IC50 ([2]; ATP vs [γ^32 P]-8-N3 ATP, FIG. 2 legend, read-out: 50% inhibition of photoincorporation) was ~350 µM and the “protection against photolabeling by ATP” value ([2]; S1C5, 200 μM [γ^32 P]8-N3 ATP, in words) was “Photolabeling could be prevented; also recorded: photolabeling is inhibited by ATP”. The “protection against photolabeling by ATP” value [3] was “Photolabeling could be prevented; also recorded: photolabeling is inhibited by ATP”.

For `[N-]=[N+]=Nc1nc2c(N)ncnc2n1[C@@H]1O[C@H](COP(=O)(O)OP(=O)(O)O[32P](=O)(O)O)[C@@H](O)[C@H]1O` [[γ^32 P]-8-N3 ATP], the “average number of molecules of 8-N3 ATP/Ig molecule” value [4] was 1.9±0.2 molecules of 8-N3 ATP/Ig molecule, the saturation of photolabeling ([5]; S1C5, Example 10) was 150 to 175 µM and the Kd ([5]; S1C5, Example 10, read-out: apparent Kd) was 75 µM. The “saturating concentration of probe” value ([5]; [γ^32 P]-8-N3 ATP, both heavy and light chains, Example 1) was “about 200 μm”, the “photoincorporation into heavy and light chains” value ([5]; in words, Example 1) was “covalently attaching to both antibody heavy and light chains; also recorded: covalently attached to both heavy and light chains” and the saturation of photolabeling [6] was “about 50 μM”. For the same molecule, the Kd ([6]; read-out: apparent Kd) was 25 µM.

With `N[C@@H](Cc1c[nH]c2ccccc12)C(=O)O` [tryptophan] the “protection against photolabeling by amino acids” value [7] was “best protection”.

B1: 8019: IgG1, κ antibody; recognizes the CEA antigen expressed by the LS17T4 tumor cell line (protein)
chain: DIVLTQSPASLSASVGETVTITCRASENIYSYLLWYQQKQGKSPQLLVYNAKTLAEGVPSRFSGSGSGTQFSLKINSLQPEDFGSYFCQHHFGTPWTFGGGTSLEIKRAEVNLEESGGGLVQPGGSMKLSCAASGFTESDAWMDWVRQSPEKGLEWVAEIRTKVNNHATYYAESVKGRFTISRDDSKSNVYLQMNSLRVEDTGIYYCTMAYYEAYWGQGTLVTSAAK
modifications: photoaffinity label in the variable domains as tested: biotinylated 8-azidoadenosine (FACS) or [gamma-32P]8-N3ATP (cell binding competition); labelled residue not fixed
notes: IgG1, κ antibody; recognizes the CEA antigen expressed by the LS17T4 tumor cell line
For B1, the “inhibition of γ^32 P-labeled antibody binding by unlabeled antibody” value [8] was “inhibited on an apparent 1:1 ratio by unlabeled antibodies” and the “binding to tumor cell targets by flow cytometry” value [9] was “recognized their specific tumor cell targets”.

B2: S1C5: anti-B cell lymphoma idiotype antibody; specific for a murine B-cell tumor idiotype 38C13 (protein)
chain: QIVLTQSPAINSASLGERVTMTCTASSSVSSSYFHWYQQKQGSSPKLWIYTTSNLASGVPARFSGSGSGTSYSLTISSMEAEDAATYYCHQYHRSPLTFGAGTKLELKRAQVQLQQSDAILVKPGASVKISCKASGYTFTDHVIHWVKQRPEQLGEWIGFISPGNGDIRYNEKFKDKATADKSSSTAYMQLNSLTSEDSAVYFCKRSFYYYDDNYGDYWGQGTTLTVSSAK
modifications: photoaffinity label in the variable domains as tested: biotinylated 8-azidoadenosine (FACS) or [gamma-32P]8-N3ATP (cell binding competition); labelled residue not fixed
notes: anti-B cell lymphoma idiotype antibody; specific for a murine B-cell tumor idiotype 38C13
In the case of B2, the “inhibition of γ^32 P-labeled antibody binding by unlabeled antibody” value [10] is reported as “inhibited on an apparent 1:1 ratio by unlabeled antibodies” and the “binding to tumor cell targets by flow cytometry” value [11] is reported as “recognized their specific tumor cell targets”.
